Experimental data reported in the NIST ThermoML archive (doi:10.1016/j.tca.2016.04.023).
Values joined by “and” are separate entries in the source; they are usually repeats but may differ in a detail not shown here. Identical values can stand only once. ± gives the expanded uncertainty stated by the source.

Tests used:
[1] = Crystal; DTA
[2] = Molar enthalpy of transition or fusion; settings: Crystal; DSC

Normal melting temperature [1]: 28.70 ± 1.1 °C and 28.30 ± 1.1 °C
Molar enthalpy of transition or fusion [2]: 9.69 kcal/mol and 9.27 kcal/mol
Compound: O.O.O.O.O.O.[Ca+2].[Cl-].[Cl-] [calcium chloride hexahydrate]
